Measurements from paper PMC3707052 (Alzheimer's Research & Therapy, 2013).
Read-outs that look alike come from different tables or passages of the source. One block for each compound: values may come before it.

Key:
[1] = molecular target: gamma-secretase; set-up: method as in PMID 22505028, PMID 19542625; conditions: weak modulator; cited from earlier work
[2] = test system: gamma-secretase; assay: Aβ peptides in conditioned media of CHO-2B7 cells (MSD 3-Plex); format: cell-based, Chinese hamster; conditions: for IC50: 5 hrs treatment, conditioned media
Experimental: CHO-2B7 cells (Mayo Clinic) are Chinese hamster ovary cells stably transfected with human βAPP 695wt. The cells were cultured in Ham's F12 media (Thermo Fisher SH30026.01, Waltham, MA, USA) supplemented with 10% FBS, 0.25 mg/mL Zeocin and 90 ug/mL penicillin/streptomycin at 37°C in a 5% CO2 atmosphere. For compound treatment, cells were plated in 96-well plates at a density of 1.0 × 10^5 cells/mL and allowed grow to 100% confluence over two days. Test compounds in dimethyl sulfoxide (DMSO) were diluted 100-fold directly into the media before being adding to the cells. Immediately prior to adding compound-containing media to the cells, the cells were washed once with 1X PBS. Conditioned media from CHO-2B7 cells were collected after 5 hrs of treatment and the levels of Aβ peptides were assessed as described below.
Conditioned media were collected after 5 hrs of treatment and diluted with one volume of MSD blocking buffer (1% BSA in MSD wash buffer). MSD Human (6E10) Aβ 3-Plex plates, which are pre-spotted with three separate spots in each well containing capture antibodies against the unique C-terminal ends of Aβ38, Aβ40 and Aβ42, respectively, were blocked with MSD blocking buffer for one hour. Samples were transferred to the blocked plates with 6E10 detection antibody and incubated for 2 hrs at room temperature with orbital shaking followed by washing and reading according to the manufacturer's instructions (SECTOR® Imager 2400 Meso Scale Discovery, Gaithersburg MD, USA).

[3] = test system: gamma-secretase; assay: Six-day once-a-day oral dosing PK/PD in Tg2576 mice (brain, plasma, CSF Aβ); format: in vivo; conditions: positive control, orally once on day six, 6 hrs post dose
Experimental: Female transgenic mice (Tg2576, 3 months of age; n = 20), wild-type male CD-1 mice (six weeks of age; n = 8 to 12) or wild-type male Sprague Dawley rats (200 to 225 g body weight; n = 12) were utilized to assess in vivo efficacy.
In the transgenic studies, compound was dosed in 10:20:70 ethanol/solutol/water via oral gavage. […] The mice were subjected to cisterna magna puncture and collection of cerebrospinal fluid (CSF) (approximately 5 μl per mouse). Individual CSF samples were flash-frozen on dry ice and stored at -80°C. Thereafter, the mice were subjected to cardiac puncture and blood samples were collected into K2EDTA tubes and stored on wet ice until processed to plasma by centrifugation (2,000 g at 4°C for 10 minutes) within 30 minutes of collection. The plasma was aliquoted for both Aβ measurements and parent drug using LC/MS/MS. Both sets of tubes were frozen at -80°C. The brains were perfused with non-heparinized saline (the blood flushed away) and removed carefully. Brains were rinsed with ice cold PBS (without Mg^2+ or Ca^2+), blotted dry, dissected on ice into three pieces (left and right hemisphere and cerebellum). Samples were frozen in liquid nitrogen immediately prior to storage at -80°C. Cerebella were analyzed for parent drug via LC/MS/MS. Parent drug levels were compared to a standard curve to establish the plasma, brain and CSF levels. […]

Compound: C[C@@H](C(=O)O)c1ccc(-c2ccccc2)c(F)c1 [Flurizan]
IC50 [1]: 250 µM

IC50 ([2]; CHO-2B7 cells, read-out: IC50 Aβ38): 0.259 µM
IC50 ([2]; CHO-2B7 cells, read-out: IC50 Aβ40): 2.8 µM
IC50 ([2]; CHO-2B7 cells, read-out: IC50 Aβ42): 0.106 µM
Compound: CCO[C@@H]([C@H]1C[C@@H](C)[C@H]2[C@@H](O1)[C@H](O)[C@@]1(C)[C@@H]3CC[C@H]4C(C)(C)[C@@H](O[C@H]5CN(C6CN(C(C)C)C6)CCO5)CC[C@@]45C[C@@]35CC[C@]21C)C(C)(C)O [SPI-1865]
Total Aβ ([2]; CHO-2B7 cells): only decreased at doses where cytotoxicity was observed
IC25 Aβ42 ([2]; in vitro): 0.033 ± 0.018 µM

Compound: CC(C)CC[C@H](c1ccc(Cl)cc1)N1CC[C@@H](CC(=O)O)C[C@H]1c1ccc(C(F)(F)F)cc1 [Merck GSM-1]
effect on Aβ38 levels [3]: increased Aβ38 levels
effect on Aβ42 levels [3]: significantly reduced Aβ42
